For data set [1], the target named is T1, human V1a receptor (Homo sapiens, UniProt P37288).
T1 construct: host or cells: CHO cells
Description: Inhibition of phosphatidylinositol turnover (V1a). Conditions: hV1a cells. In kind it is cell-based. From the text: EXAMPLE. Inhibition of phosphatidylinositol turnover (V1a). The physiological effects of vasopressin are mediated through specific G-protein coupled receptors. The V1aR is coupled to the Gq/G11 family of G proteins and mediates phosphatidylinositol turnover. The agonist or antagonist character of the compounds of the invention may be determined by their ability to inhibit vasopressin-mediated turnover of phosphatidylinositol by the procedure described in the following paragraphs.
Cell culture and labeling of cells. Three days prior to the assay, near-confluent cultures of hV1a or hV1b cells were dissociated and seeded in 6-well tissue culture plates, about 100 wells being seeded from each 75 cm^2 flask (equivalent to 12:1 split ratio). Each well contained 1 mL of growth medium with 2 μCi of [^3H]myo-inositol (American Radiolabeled Chemicals, St. Louis, Mo., USA).
Incubations (V1a and V1b). All assays were in triplicate except for basal and 10 nM AVP (both n=6). AVP ((arginine vasopressin), Peninsula Labs, Belmont, Calif., USA (#8103)) was dissolved in 0.1N acetic acid. Test agents were dissolved in DMSO and diluted in DMSO to 200 times the final test concentration. […] The order of incubations was randomized. Incubations were initiated by removing the prelabeling medium, washing the monolayer once with 1 mL of 0.9% NaCl, and transferring the contents of the assay tubes to corresponding wells. The plates were incubated for 1 hour at 37° C. Incubations were terminated by removing the incubation medium and adding 500 μL of ice cold 5% (w/v) trichloroacetic acid and allowing the wells to stand for 15 min.
Measurement of [^3H]inositol phosphates (V1a and V1b). BioRad Poly-Prep Econo-Columns were packed with 0.3 mL of AG 1 X-8 100-200 formate form resin. Resin was mixed 1:1 with water and 0.6 mL added to each column. Columns were then washed with 10 mL water. Scintillation vials (20 mL) were placed under each column. For each well, the contents were transferred to a minicolumn, after which the well was washed with 0.5 mL distilled water, which was also added to the minicolumn. The columns were then washed twice with 5 mL of 5 mM myo-inositol to elute free inositol. Aliquots (1 mL) were transferred to 20 mL scintillation vials and 10 mL of Beckman Ready Protein Plus added. After the myo-inositol wash was complete, empty scintillation vials were placed under the columns, and [^3H]inositol phosphates were eluted with three additions of 1 mL 0.5 M ammonium formate containing 0.1 N formic acid. […] Inositol lipids were measured by adding 1 mL of 2% sodium dodecyl sulfate (SDS) to each well, allowing the wells to stand for at least 30 min., and transferring the solution to 20 mL scintillation vials, to which 10 mL Beckman Ready Protein Plus scintillation fluid was then added. Samples were counted in a Beckman LS 3801 liquid scintillation counter for 10 min. Total inositol incorporation for each well was calculated as the sum of free inositol, inositol phosphates, and inositol lipids.
Data analysis (V1a and V1b): concentration-inhibition experiments. Concentration-response curves for AVP and concentration-inhibition curves for test agents versus 10 nM AVP were analyzed by nonlinear least-squares curve-fitting to a 4-parameter logistic function. […] The curve-fitting was weighted under the assumption that the standard deviation was proportional to dpm of radioactivity. […]

Another data set has as its target T2, V1b receptor (Homo sapiens, UniProt P47901).
T2 construct: expressed in transfected cells; host or cells: CHO-K1 (ATCC), vector PCI-neo
T2 sequence (P47901 1-424): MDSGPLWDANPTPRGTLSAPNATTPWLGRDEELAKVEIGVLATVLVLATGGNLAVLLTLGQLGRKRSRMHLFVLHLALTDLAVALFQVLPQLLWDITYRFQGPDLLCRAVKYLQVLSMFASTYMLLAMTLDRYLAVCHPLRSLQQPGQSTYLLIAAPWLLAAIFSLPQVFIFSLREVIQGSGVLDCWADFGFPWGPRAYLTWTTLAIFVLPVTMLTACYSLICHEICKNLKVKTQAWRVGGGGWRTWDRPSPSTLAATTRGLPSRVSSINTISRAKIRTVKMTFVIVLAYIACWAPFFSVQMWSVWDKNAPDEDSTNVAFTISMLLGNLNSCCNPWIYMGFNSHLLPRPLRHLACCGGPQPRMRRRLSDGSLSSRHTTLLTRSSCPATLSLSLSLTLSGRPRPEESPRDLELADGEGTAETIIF
The experiment in a line: Human or rat vasopressin V1b cell-based receptor binding assay. Conditions: selectivity table; read-out: inhibition data Ki, V1b. An excerpt:
EXAMPLE. Human vasopressin V1b receptor-expressing cells. Human vasopressin receptor 1b (hV1b) cDNA (see, Lolait et al., “Extrapituitary expression of the rat V1b vasopressin receptor gene” Proc. Natl. Acad. Sci. USA. 92:6783-7 (1995); de Keyzer et al., “Cloning and characterization of the human V3(V1b) pituitary vasopressin receptor” FEBS Lett. 356:215-20 (1994); Sugimoto et al., “Molecular cloning and functional expression of a cDNA encoding the human V1b vasopressin receptor” J. Biol. Chem. 269:27088-92 (1994)) was inserted into a mammalian cell expression vector PCI-neo (Promega) at EcoR1 site. The recombinant plasmid carrying hV1b cDNA was identified from transformed E. Coli clones and used for the transfection of Chinese hamster ovary cell (CHO-K1, ATCC). Two micrograms of hV1b receptor DNA was introduced into 10^5 CHO cells cultured in 6-well plate, using Fugene-6 mediated transfection technique (Boehringer Mannheim). Twenty-four hrs post transfection, Cells were then cultured under selection of G-418 (0.25 mg/ml) supplemented to the culture medium. Three days later, limited dilution was carried out to obtain single cell clones in 96-well plates. […]
EXAMPLE. […] Samples were counted in a liquid scintillation counter (Beckman LS3801). IC50 and Ki values were calculated using Prism Curve fitting software. […]

The next data set deals with V2 (Homo sapiens, UniProt P30518). The experiment in a line: V2 receptor inhibition data (Ki). Format: binding. Conditions: selectivity table.
Chain of V2 (P30518 whole entry): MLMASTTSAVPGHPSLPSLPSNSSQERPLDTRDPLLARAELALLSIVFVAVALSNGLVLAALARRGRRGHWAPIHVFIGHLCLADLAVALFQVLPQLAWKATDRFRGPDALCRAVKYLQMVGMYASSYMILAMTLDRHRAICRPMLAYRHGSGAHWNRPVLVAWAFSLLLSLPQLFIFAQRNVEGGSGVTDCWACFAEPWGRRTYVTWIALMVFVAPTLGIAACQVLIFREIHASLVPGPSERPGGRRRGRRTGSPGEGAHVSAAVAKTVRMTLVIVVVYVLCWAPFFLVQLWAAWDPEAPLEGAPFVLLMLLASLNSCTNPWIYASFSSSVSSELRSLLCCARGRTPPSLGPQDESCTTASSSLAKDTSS
The nature of another data set: Pharmacokinetics. Format: in vivo. The conditions noted are these: b.i.d. dosing. From the text: EXAMPLE. Pharmacokinetics. Compounds described herein are rapidly absorbed after oral administration. Compounds described herein cross the blood-brain-barrier and achieve therapeutically effective concentrations in the CNS. Compounds described herein may be dosed according to a wide variety of protocols, including but not limited to q.d., b.i.d., and the like.

Data set [2] addresses T1, human V1a receptor. Description: Human vasopressin V1a receptor binding assay. The conditions noted are these: hV1a cell line, [3H]-AVP. As for the experimental part: EXAMPLE. Human vasopressin V1a receptor binding assay. A cell line expressing the human V1a receptor in CHO cells (henceforth referred to as the hV1a cell line) was obtained from Dr. Michael Brownstein, NIMH, Bethesda, Md., USA. The hV1a cDNA sequence is described by Thibonnier et al., Journal of Biological Chemistry, 269, 3304-3310 (1994), and the expression method was the same as described by Morel et al. (1992). The hV1a cell line was grown in alpha-MEM with 10% fetal bovine serum and 250 ug/ml G418 (Gibco, Grand Island, N.Y., USA). For competitive binding assay, hV1a cells were plated into 6-well culture plate at 1:10 dilution from a confluency flask, and maintained in culture for at least two days. Culture medium was then removed, cells were washed with 2 ml binding buffer (25 mM Hepes, 0.25% BSA, 1×DMEM, PH=7.0). To each well, 990 μl binding buffer containing 1 nM 3H-AVP was added, and followed by 10 μl series diluted Example compounds dissolved in DMSO. […] 100 nM cold AVP (Sigma) was used to assess non-specific binding. Cells were incubated for 45 minutes at 37° C., assay mixture was removed and each well was washed three times with PBS (pH=7.4). 1 ml 2% SDS was added per well and plates were let sit for 30 minutes. The whole content in a well was transferred to a scintillation vial. Each well was rinsed with 0.5 ml PBS which was then added to the corresponding vial. Scintillation fluid (Ecoscint, National Diagnostics, Atlanta, Ga.) was then added at 3 ml per vial. Samples were counted in a liquid scintillation counter (Beckman LS3801). IC50 values were calculated by Prism Curve fitting software.
All of the alkanedioic esters and amides exemplified in the foregoing examples dissolved in DMSO were tested in this assay. Binding curves were generated according to methods described by Thibonnier et al. (1994). [^3H]-AVP was added to the hV1a cell cultures followed by 10-fold dilutions of each test compound.

Molecules are shown by their SMILES.

T1 sequence (P37288 whole entry): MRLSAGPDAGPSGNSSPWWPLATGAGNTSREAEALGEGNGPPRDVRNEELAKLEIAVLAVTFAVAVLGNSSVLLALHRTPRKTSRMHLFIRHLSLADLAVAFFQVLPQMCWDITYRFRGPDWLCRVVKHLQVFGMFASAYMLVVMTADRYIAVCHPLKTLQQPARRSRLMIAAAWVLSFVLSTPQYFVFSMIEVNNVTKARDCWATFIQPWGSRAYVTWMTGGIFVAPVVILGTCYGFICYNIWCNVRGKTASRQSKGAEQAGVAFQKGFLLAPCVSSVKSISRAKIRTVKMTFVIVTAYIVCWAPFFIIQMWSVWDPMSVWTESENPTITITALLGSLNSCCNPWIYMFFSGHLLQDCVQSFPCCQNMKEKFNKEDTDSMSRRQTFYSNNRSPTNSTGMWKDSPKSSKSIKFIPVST

Turning to `O=C(NCc1cccc(C(F)(F)F)c1)C(CC(=O)N1CCC(N2CCCCC2)CC1)N1C(=O)C(N2C(=O)OCC2c2ccccc2)C1C=Cc1ccccc1` (stereo not shown) [Example 44], the “agonist or antagonist character (inhibition of vasopressin-mediated phosphatidylinositol turnover)” value on human V1a receptor [1] was “vasopressin V1a antagonists”.

As to `C[C@@H](NC(=O)[C@@H](CC(=O)N1CCC(N2CCCCC2)CC1)N1C(=O)[C@@H](N2C(=O)OC[C@@H]2c2ccccc2)[C@H]1/C=C/c1ccccc1)c1ccccc1` [Example 224, 2(R)-[[4-(Piperidinyl)piperidinyl]carbonylmethyl]-2-[3(S)-(4(S)-phenyloxazolidin-2-on-3-yl)-4(R)-(2-styryl)azetidin-2-on-1-yl]acetic acid N—[(R)-α-methylbenzyl]amide], the Ki (commonly a measure of affinity in units of concentration, obtained from inhibition or displacement) on V1b receptor was > 1 µM. Moreover, the Ki at V2 is > 1 µM. Further, in “Pharmacokinetics”, the T1/2 entry is “improved” and the accumulation is reported as 1.7 fold. Regarding `CN(Cc1cccc(C(F)(F)F)c1)C(=O)[C@@H](CC(=O)N1CCC(N2CCCCC2)CC1)N1C(=O)[C@@H](N2C(=O)OC[C@@H]2c2ccccc2)[C@H]1/C=C/c1ccccc1` [Example 225, 2(R)-[[4-(Piperidinyl)piperidinyl]carbonylmethyl]-2-[3(S)-(4(S)-phenyloxazolidin-2-on-3-yl)-4(R)-(2-styryl)azetidin-2-on-1-yl]acetic acid N-methyl-N-(3-trifluoromethylbenzyl)amide], the IC50 (commonly the concentration at which inhibition is half-maximal) at human V1a receptor [2] fell in the range of 0.00186 to 0.00213 µM. Further, the Ki is 0.00114 to 0.0013 µM at human V1a receptor [2], > 1 µM at V1b receptor and > 1 µM on V2. Regarding `O=C(NCc1cccc(C(F)(F)F)c1)[C@H](CCC(=O)N1CCN(CCc2ccccc2)CC1)N1C(=O)[C@@H](N2C(=O)OC[C@@H]2c2ccccc2)[C@H]1C=Cc1ccccc1` (single isomer, unassigned) [Example 35], the “agonist or antagonist character (inhibition of vasopressin-mediated phosphatidylinositol turnover)” value at human V1a receptor [1] is given as “vasopressin V1a antagonists”. On the same count and under the same terms, the value for `O=C(NCc1cccc(C(F)(F)F)c1)C(CC(=O)N1CCC(N2CCCCC2)CC1)N1C(=O)C(N2C(=O)OCC2c2ccccc2)C1C=Cc1ccccc1` (stereo not shown) [Example 133] was “vasopressin V1a antagonists”; that for `O=C(NCc1cccc(C(F)(F)F)c1)C(CCC(=O)N1CCC(N2CCCCC2)CC1)N1C(=O)C(N2C(=O)OCC2c2ccccc2)C1C=Cc1ccccc1` (stereo not shown) [Example 88] was “vasopressin V1a antagonists”; that for `O=C(NCc1cccc(C(F)(F)F)c1)C(CCC(=O)N1CCN(C2CCCCC2)CC1)N1C(=O)C(N2C(=O)OCC2c2ccccc2)C1C=Cc1ccccc1` (single isomer, unassigned) [Example 110] was “vasopressin V1a antagonists”.

The record behind these values is US11628160B2, “Compositions and methods for treating brain injury” (Azevan Pharmaceuticals, Inc., priority 2017, dated 2023).
